From patent US4342766A, “Novel dihydro-as-triazino[5,6-c]quinoline derivatives and a process for the preparation thereof” (priority 1980, dated 1982) come the findings set out here.

Series [1] can be described thus: Narcosis potentiating effect (hexobarbital sleeping time). As to conditions: for ED50: Mus musculus, read-out: Narcosis potentiating effect ED50 p.o.; for Therapeutic index LD50/ED50 (narcosis potentiating effect): p.o., hexobarbital. It is filed as in vivo, mice. The protocol: The narcosis potentiating effect of the novel compounds of the formula I was tested on groups consisting of 6 mice each. The animals belonging to the control group received an oral dosage of 20 ml/kg of 0.9 percent aqueous sodium chloride solution, whereas the other animals were treated orally with the compound to be tested.

Series [2] in a line: Antiphlogistic effect, carrageenin paw test on rats (method of Winter). Particulars: for ED50: Rattus norvegicus, po, 3 h, read-out: Antiphlogistic effect ED50 p.o.; for Therapeutic index LD50/ED50 (antiphlogistic effect): p.o., carrageenin paw test on rats, LD50 from mice. (The carrageenan paw model is a standard test of acute inflammation.)
Procedure: The antiphlogistic effect of the novel compounds of the invention was investigated on rats by the method of Winter [J. Pharm. […] 0.1 ml of a 1 percent carrageenin suspension was injected, subcutaneously, into the plantar region of one of the hind paws. The compounds to be tested were administered orally into the animals 1 hour before the injection of the carrageenine suspension. The volume of the treated paw was measured by mercury-plethysmometer before and 3 hours after injection.
The next series can be described thus: in vivo. As to conditions: mouse, mice, female and male, 18 to 24 g, oral. The protocol: The acute toxicity of the compounds of the formula I was determined on both female and male mice weighing 18 to 24 g. The compounds were administered orally.
A short description of series [3]: Analgesic effect, acetic acid writhing test on mice. Particulars: for ED50: Mus musculus, po, read-out: Analgesic effect ED50 p.o.; for Therapeutic index LD50/ED50 (analgesic effect): mice, p.o., acetic acid writhing. As for the experimental part: The analgesic effect was studied by means of the acetic acid writhing test on mice. After the intraperitoneal administration of 0.4 ml of 0.5 percent acetic acid, the writhing responses were counted between the fifth and tenth minutes. The writhing number was calculated as the percentage of the control value. The compounds tested were orally administered to the animals 1 hour prior to the treatment with acetic acid. […] Paracetamole and phenylbutazone were used as reference substance.
(In general: Writhing tests count abdominal constrictions after an irritant is injected.)

Series [4] in a line: Anticonvulsive effect, inhibition of the spasm provoked by electroshock. In kind it is in vivo, white mice. As to conditions: for ED50: Mus musculus, white mice, oral 1 hour prior to electroshock (45 mA, 50 Hz, 0.4 sec), read-out: Inhibition of the spasm provoked by electroshock ED50 p.o.; for Therapeutic index LD50/ED50 (electroshock): mice, p.o. The source says: The anticonvulsive effect of the novel compounds was studied on white mice weighing 20 to 25 g through the inhibition of the spasm developed by electroshock. The electroshock was provoked by means of corneal electrodes with a current intensity of 45 mA. The frequency of the current used was equivalent to 50 Hz, and the duration of each electroshock was 0.4 sec. The complete inhibition of the tonic extension of the hind limbs was taken as criterium of the anticonvulsive effect. The compounds to be tested were administered orally 1 hour prior to the electroshock.

Series [5] is described as follows: Anticonvulsive effect, inhibition of spasms provoked by pentamethylenetetrazole. In kind it is in vivo, white mice. As to conditions: for ED50: Mus musculus, white mice, oral 1 hour before pentamethylenetetrazole 125 mg/kg i.p., read-out: Inhibition of spasms provoked by pentamethylenetetrazole ED50 p.o.; for Therapeutic index LD50/ED50 (pentamethylenetetrazole): mice, p.o. As for the experimental part: The anticonvulsive effect of the compounds was also studied through the inhibition of the spasm provoked by pentamethylenetetrazole [6,7,8,9-tetrahydro-5H-tetrazoloazepine]. 125 mg/kg doses of pentamethylenetetrazole were administered intraperitoneally into white mice divided into groups consisting of 6 animals and the tonic extension spasms of the hind limbs were registered. The compounds to be tested were administered orally 1 hour before the injection of pentamethylenetetrazole.

A short description of the next series: Tetrabenazine antagonism. Particulars: for ED50: Mus musculus, oral 30 minutes before tetrabenazine 50 mg/kg i.p., counts at 30, 60, 90 and 120 minutes, read-out: Tetrabenazine antagonism ED50 p.o.; for Therapeutic index LD50/ED50 (tetrabenazine antagonism): p.o. In kind it is in vivo. As for the experimental part: The tetrabenazine antagonizing effect of the novel compounds was tested on groups consisting of 10 mice each. The animals belonging to the control group received an oral dosage of 20 ml/kg of 0.9 percent aqueous sodium chloride solution, whereas the other animals were treated orally with the compound to be tested. 30 minutes after the introduction of the active agent or the vehicle, 50 mg/kg of tetrabenazine [3-isobutyl-9,10-dimethoxy-1,2,3,4,6,7-hexahydrobenzo[a]quinolizine-2-one]were administered intraperitoneally. The animals with closed palpebral fissures were counted 30, 60, 90 and 120 minutes after the administration of tetrabenazine. The data obtained in the individual measuring times were added, and the percentage inhibition related to the controls was calculated. Amitriptylin was employed as reference compound.

[6] abbreviates: mice, oral 1 hour before hexobarbital 40 mg/kg i.v., 150 percent prolongation of sleeping time = positive response.

Turning to `CCCCCC1=Nc2cnc3ccccc3c2N(C(C)=O)N1` [Example 1, 1-acetyl-3-amyl-1,2-dihydro-as-triazino[5,6-c]quinoline], the ED50 (as a rule, the midpoint of the dose-response relation) in series [1] (setting [6]) is 200 mg/kg. The “Therapeutic index LD50/ED50 (narcosis potentiating effect)” value in series [1] (mice) is given as 10. Besides, in series [2], the ED50 was found to be 100 mg/kg and the “Therapeutic index LD50/ED50 (antiphlogistic effect)” value worked out at 20. Besides, in the series “in vivo”, the LD50 (usually the dose expected to kill half of the subjects tested) was determined as 2000 mg/kg. Moreover, in series [3], the ED50 is 125 mg/kg and the “Therapeutic index LD50/ED50 (analgesic effect)” value worked out at 16.

As to `CC(=O)N1C(c2ccccc2)=NNc2c1cnc1ccccc21` [Example 3, 4-Acetyl-3-phenyl-1,4-dihydro-as-triazino[5,6-c]quinoline], the ED50 in series [1] (setting [6]) stood at 150 mg/kg. For the same compound, in series [1] (mice), the “Therapeutic index LD50/ED50 (narcosis potentiating effect)” value is 13.3. In addition, the LD50 in “in vivo” came to 2000 mg/kg.

`CCCCC1=Nc2cnc3ccccc3c2N(C(C)=O)N1` [Example 6, 1-Acetyl-3-butyl-1,2-dihydro-as-triazino[5,6-c]quinoline]: in series [4], the ED50 turned out to be 160 mg/kg and the “Therapeutic index LD50/ED50 (electroshock)” value is recorded as 12.5. Also, the 50% effective dose (ED50) in series [1] (setting [6]) was 125 mg/kg. In addition, in series [1] (mice), the “Therapeutic index LD50/ED50 (narcosis potentiating effect)” value was 16. Moreover, in series [2], the ED50 amounted to 36 mg/kg and the “Therapeutic index LD50/ED50 (antiphlogistic effect)” value is reported as 55. Further, the LD50 in the series “in vivo” came to 2000 mg/kg. For the same compound, in series [3], the ED50 was found to be 320 mg/kg and the “Therapeutic index LD50/ED50 (analgesic effect)” value was 6. Moreover, in series [5], the median effective dose (ED50) came to 90 mg/kg and the “Therapeutic index LD50/ED50 (pentamethylenetetrazole)” value is on record as 22,2.

In the case of `CCCCCCCCC1=Nc2cnc3ccccc3c2N(C(C)=O)N1` [Example 7, 1-Acetyl-3-octyl-1,2-dihydro-as-triazino[5,6-c]quinoline], in series [4], the ED50 amounted to 450 mg/kg and the “Therapeutic index LD50/ED50 (electroshock)” value came out at 4.4. In “in vivo”, the LD50 is 2000 mg/kg. In series [5], the ED50 amounted to 350 mg/kg and the “Therapeutic index LD50/ED50 (pentamethylenetetrazole)” value is listed as 5,7.

As for `CC(=O)N1NC(CC(C)C)=Nc2cnc3ccccc3c21` [Example 8, 1-Acetyl-3-isobutyl-1,2-dihydro-as-triazino[5,6-c]quinoline], in series [4], the 50% effective dose (ED50) turned out to be 200 mg/kg and the “Therapeutic index LD50/ED50 (electroshock)” value was determined as 10. Besides, the ED50 in series [1] (setting [6]) was determined as 70 mg/kg. For the same compound, the “Therapeutic index LD50/ED50 (narcosis potentiating effect)” value in series [1] (mice) is listed as 28.5. The same compound had an LD50 in “in vivo” of 2000 mg/kg. In series [5], the ED50 turned out to be 72 mg/kg and the “Therapeutic index LD50/ED50 (pentamethylenetetrazole)” value is recorded as 27,8. In the series “Tetrabenazine antagonism”, the ED50 stood at 20 mg/kg and the “Therapeutic index LD50/ED50 (tetrabenazine antagonism)” value stood at 100.

As for `CC(=O)N1NC(C(C)(C)C)=Nc2cnc3ccccc3c21` [Example 9, 1-Acetyl-3-tert.-butyl-1,2-dihydro-as-triazino[5,6-c]quinoline], the LD50 in the series “in vivo” came to 2000 mg/kg. In series [5], the ED50 is 165 mg/kg and the “Therapeutic index LD50/ED50 (pentamethylenetetrazole)” value worked out at 12.

As for `CC(=O)N1NC(CCC(C)C)=Nc2cnc3ccccc3c21` [Example 10, 1-Acetyl-3-(3'-methyl-1'-butyl)-1,2-dihydro-as-triazino[5,6-c]quinoline], the ED50 in series [1] (setting [6]) is 100 mg/kg; in series [2], 200 mg/kg; in series [3], 100 mg/kg; in the series “Tetrabenazine antagonism”, 14.5 mg/kg. The “Therapeutic index LD50/ED50 (narcosis potentiating effect)” value in series [1] (mice) was 20. Also, in series [2], the “Therapeutic index LD50/ED50 (antiphlogistic effect)” value came out at 10. The LD50 in “in vivo” turned out to be 2000 mg/kg. In series [3], the “Therapeutic index LD50/ED50 (analgesic effect)” value is reported as 20. In “Tetrabenazine antagonism”, the “Therapeutic index LD50/ED50 (tetrabenazine antagonism)” value is reported as 138.

With `CCC(CC)C1=Nc2cnc3ccccc3c2N(C(C)=O)N1` [Example 11, 1-Acetyl-3-[1'-ethyl-1'-propyl]-1,2-dihydro-as-triazino[5,6-c]quinoline], in the series “Tetrabenazine antagonism”, the ED50 is 54 mg/kg and the “Therapeutic index LD50/ED50 (tetrabenazine antagonism)” value was 37.

For the compound `CN(C)CCC=C1c2ccccc2CCc2ccccc21` [amitriptylin, 5-(3-dimethylaminopropylidene)-10,11-dihydro-5H-dibenzo[a,d]cycloheptene, reference compound], in “Tetrabenazine antagonism”, the ED50 was 12 mg/kg and the “Therapeutic index LD50/ED50 (tetrabenazine antagonism)” value was found to be 19.

As for `CCCC(C)(COC(N)=O)COC(N)=O` [meprobamate, 2-methyl-2-propylpropane-1,3-diol dicarbamate, reference compound], the 50% effective dose (ED50) in series [1] (po) is 260 mg/kg. Moreover, the “Therapeutic index LD50/ED50 (narcosis potentiating effect)” value in series [1] (mice) was 4.2.

As for `CC(=O)Nc1ccc(O)cc1` [paracetamole, p-hydroxyacetanilide, reference compound], the LD50 in the series “in vivo” turned out to be 540 mg/kg. Besides, in series [3], the ED50 worked out at 180 mg/kg and the “Therapeutic index LD50/ED50 (analgesic effect)” value turned out to be 3.

Take `CCCCC1C(=O)N(c2ccccc2)N(c2ccccc2)C1=O` [phenylbutazone, 4-butyl-1,2-diphenylpyrazolidine-3,5-dione, reference compound]: the ED50 in series [2] was determined as 100 mg/kg; in series [3], 60 mg/kg.

Take `CN1C(=O)OC(C)(C)C1=O` [trimethadione, 3,5,5-trimethyloxazolidine-2,4-dione, reference compound]: in series [4], the median effective dose (ED50) was 400 mg/kg and the “Therapeutic index LD50/ED50 (electroshock)” value stood at 5.3. In “in vivo”, this compound gave an LD50 of 2050 mg/kg. Moreover, in series [5], the ED50 worked out at 490 mg/kg and the “Therapeutic index LD50/ED50 (pentamethylenetetrazole)” value is 4,3.
